Our source for the IC50 values is ChEMBL document CHEMBL1153282, “N-substituted 2'-(aminoaryl)benzothiazoles as kinase inhibitors: hit identification and scaffold hopping” (Bioorg Med Chem Lett, 2009).

In experiment [1] the target is Epidermal growth factor receptor (Homo sapiens, UniProt P00533). The experiment is described as follows: Inhibition of EGFR by virtual HTS assay.
Experiment [2] has as its target Proto-oncogene tyrosine-protein kinase Src (Homo sapiens, UniProt P12931). The experiment is described as follows: Inhibition of Src by virtual HTS assay.
The target in a further experiment is T1, Aurora kinase A (Homo sapiens, UniProt O14965).
T1 sequence (O14965 whole entry): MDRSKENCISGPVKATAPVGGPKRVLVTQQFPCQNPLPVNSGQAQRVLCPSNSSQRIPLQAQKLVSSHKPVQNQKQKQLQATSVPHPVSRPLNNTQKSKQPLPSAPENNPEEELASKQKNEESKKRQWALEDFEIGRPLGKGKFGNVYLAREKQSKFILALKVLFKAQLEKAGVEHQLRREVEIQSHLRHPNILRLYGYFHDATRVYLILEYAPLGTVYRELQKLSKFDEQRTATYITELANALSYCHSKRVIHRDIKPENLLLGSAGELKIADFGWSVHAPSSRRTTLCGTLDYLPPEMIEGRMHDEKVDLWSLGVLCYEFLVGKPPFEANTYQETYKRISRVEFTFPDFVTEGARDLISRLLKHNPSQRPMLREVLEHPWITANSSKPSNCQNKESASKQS
The experiment is described as follows: Inhibition of Aurora A by virtual HTS assay.

Another experiment deals with Insulin receptor (Homo sapiens, UniProt P06213). The experiment is described as follows: Inhibition of insulin receptor by virtual HTS assay.
Experiment [3] deals with Insulin-like growth factor 1 receptor (Homo sapiens, UniProt P08069). The experiment is described as follows: Inhibition of IGF1R by virtual HTS assay.
Insulin-like growth factor 1 receptor, sequence (P08069 31-736 limits assumed): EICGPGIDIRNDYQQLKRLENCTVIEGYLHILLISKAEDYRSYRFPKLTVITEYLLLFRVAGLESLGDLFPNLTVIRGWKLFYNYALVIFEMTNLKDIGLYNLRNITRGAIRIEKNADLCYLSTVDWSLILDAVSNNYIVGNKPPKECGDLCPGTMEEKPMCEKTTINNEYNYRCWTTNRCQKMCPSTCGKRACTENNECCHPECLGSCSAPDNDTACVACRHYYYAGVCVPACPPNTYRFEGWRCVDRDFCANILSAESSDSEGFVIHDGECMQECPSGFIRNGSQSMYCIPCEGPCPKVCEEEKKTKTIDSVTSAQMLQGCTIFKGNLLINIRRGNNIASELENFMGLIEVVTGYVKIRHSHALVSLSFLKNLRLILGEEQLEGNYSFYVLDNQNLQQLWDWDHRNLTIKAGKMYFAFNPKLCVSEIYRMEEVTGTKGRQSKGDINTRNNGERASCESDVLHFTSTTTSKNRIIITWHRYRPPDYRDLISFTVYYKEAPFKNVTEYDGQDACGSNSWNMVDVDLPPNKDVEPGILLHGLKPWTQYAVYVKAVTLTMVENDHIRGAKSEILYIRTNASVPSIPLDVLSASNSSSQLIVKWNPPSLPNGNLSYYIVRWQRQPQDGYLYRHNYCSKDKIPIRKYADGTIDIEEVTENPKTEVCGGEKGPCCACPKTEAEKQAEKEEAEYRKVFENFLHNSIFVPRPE
Insulin-like growth factor 1 receptor, sequence (P08069 741-1367 limits assumed): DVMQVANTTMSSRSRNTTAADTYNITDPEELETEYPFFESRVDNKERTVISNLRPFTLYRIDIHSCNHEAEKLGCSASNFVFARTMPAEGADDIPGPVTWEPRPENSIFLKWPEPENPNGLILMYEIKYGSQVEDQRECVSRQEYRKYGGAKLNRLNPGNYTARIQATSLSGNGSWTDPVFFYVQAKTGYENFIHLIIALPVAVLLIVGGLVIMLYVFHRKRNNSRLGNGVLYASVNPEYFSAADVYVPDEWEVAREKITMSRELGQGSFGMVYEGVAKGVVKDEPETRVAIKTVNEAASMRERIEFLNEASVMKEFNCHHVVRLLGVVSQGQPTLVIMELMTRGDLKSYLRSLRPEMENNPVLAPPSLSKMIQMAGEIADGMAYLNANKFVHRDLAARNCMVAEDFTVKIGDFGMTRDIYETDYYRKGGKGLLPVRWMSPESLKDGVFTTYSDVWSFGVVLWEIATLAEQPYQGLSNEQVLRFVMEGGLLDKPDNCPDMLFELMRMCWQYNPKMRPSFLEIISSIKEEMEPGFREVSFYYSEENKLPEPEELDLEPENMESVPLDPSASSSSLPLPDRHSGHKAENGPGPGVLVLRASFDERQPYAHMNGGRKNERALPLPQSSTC
The target in experiment [4] is Vascular endothelial growth factor receptor 2 (Homo sapiens, UniProt P35968). The experiment is described as follows: Inhibition of VEGFR2 by virtual HTS assay.
In a further experiment the target is Aurora kinase B (Homo sapiens, UniProt Q96GD4). The experiment is described as follows: Inhibition of Aurora B by virtual HTS assay.
Aurora kinase B, sequence (Q96GD4 whole entry): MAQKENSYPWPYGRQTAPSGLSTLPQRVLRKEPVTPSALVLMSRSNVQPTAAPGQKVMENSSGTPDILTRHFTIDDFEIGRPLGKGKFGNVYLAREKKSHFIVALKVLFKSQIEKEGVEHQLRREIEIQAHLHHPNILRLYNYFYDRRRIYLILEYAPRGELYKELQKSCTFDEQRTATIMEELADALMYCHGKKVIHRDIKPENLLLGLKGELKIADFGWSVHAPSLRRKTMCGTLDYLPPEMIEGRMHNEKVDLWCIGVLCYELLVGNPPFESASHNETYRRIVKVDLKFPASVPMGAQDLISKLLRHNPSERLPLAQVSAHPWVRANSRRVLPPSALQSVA
A further experiment addresses Angiopoietin-1 receptor (Homo sapiens, UniProt Q02763). The experiment is described as follows: Inhibition of TIE2 by virtual HTS assay.
For the next experiment, the target named is T2, Ephrin type-B receptor 4 (Homo sapiens, UniProt P54760).
T2 sequence (P54760 whole entry): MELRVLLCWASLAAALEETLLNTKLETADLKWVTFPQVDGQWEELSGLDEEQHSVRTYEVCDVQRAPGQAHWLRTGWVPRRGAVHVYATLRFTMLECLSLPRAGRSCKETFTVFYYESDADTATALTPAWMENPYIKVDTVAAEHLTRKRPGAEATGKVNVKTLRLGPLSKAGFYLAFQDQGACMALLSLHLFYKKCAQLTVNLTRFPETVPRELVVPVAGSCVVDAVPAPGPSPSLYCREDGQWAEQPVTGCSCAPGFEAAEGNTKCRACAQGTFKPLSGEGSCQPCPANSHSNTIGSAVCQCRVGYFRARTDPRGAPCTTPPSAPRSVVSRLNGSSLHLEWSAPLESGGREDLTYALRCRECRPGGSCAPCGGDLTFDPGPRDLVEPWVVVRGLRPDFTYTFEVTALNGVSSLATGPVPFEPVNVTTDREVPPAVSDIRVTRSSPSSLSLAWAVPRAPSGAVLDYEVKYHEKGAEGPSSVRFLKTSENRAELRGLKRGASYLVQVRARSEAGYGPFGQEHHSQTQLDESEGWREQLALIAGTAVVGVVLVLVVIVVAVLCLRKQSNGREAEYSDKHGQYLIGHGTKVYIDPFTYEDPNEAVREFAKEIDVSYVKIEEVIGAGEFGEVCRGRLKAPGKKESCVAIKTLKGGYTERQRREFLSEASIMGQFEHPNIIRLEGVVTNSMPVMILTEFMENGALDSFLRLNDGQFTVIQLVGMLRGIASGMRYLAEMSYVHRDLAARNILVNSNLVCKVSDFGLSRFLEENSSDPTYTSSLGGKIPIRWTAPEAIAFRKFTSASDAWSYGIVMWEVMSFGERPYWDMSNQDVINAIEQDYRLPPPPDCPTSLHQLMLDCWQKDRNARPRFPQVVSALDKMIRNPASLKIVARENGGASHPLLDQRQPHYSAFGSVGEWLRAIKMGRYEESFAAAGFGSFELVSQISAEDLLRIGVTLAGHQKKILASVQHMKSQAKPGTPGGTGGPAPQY
The experiment is described as follows: Inhibition of EphB4 by virtual HTS assay.

Experiment [5] has as its target Cyclin-dependent kinase 4 (Homo sapiens, UniProt P11802). The experiment is described as follows: Inhibition of CDK4 by virtual HTS assay.
For experiment [6], the target named is Platelet-derived growth factor receptor beta (Homo sapiens, UniProt P09619). The experiment is described as follows: Inhibition of PDGFRbeta by virtual HTS assay.
The target of experiment [7] is Vascular endothelial growth factor receptor 3 (Homo sapiens, UniProt P35916).
Vascular endothelial growth factor receptor 3, sequence (P35916 whole entry): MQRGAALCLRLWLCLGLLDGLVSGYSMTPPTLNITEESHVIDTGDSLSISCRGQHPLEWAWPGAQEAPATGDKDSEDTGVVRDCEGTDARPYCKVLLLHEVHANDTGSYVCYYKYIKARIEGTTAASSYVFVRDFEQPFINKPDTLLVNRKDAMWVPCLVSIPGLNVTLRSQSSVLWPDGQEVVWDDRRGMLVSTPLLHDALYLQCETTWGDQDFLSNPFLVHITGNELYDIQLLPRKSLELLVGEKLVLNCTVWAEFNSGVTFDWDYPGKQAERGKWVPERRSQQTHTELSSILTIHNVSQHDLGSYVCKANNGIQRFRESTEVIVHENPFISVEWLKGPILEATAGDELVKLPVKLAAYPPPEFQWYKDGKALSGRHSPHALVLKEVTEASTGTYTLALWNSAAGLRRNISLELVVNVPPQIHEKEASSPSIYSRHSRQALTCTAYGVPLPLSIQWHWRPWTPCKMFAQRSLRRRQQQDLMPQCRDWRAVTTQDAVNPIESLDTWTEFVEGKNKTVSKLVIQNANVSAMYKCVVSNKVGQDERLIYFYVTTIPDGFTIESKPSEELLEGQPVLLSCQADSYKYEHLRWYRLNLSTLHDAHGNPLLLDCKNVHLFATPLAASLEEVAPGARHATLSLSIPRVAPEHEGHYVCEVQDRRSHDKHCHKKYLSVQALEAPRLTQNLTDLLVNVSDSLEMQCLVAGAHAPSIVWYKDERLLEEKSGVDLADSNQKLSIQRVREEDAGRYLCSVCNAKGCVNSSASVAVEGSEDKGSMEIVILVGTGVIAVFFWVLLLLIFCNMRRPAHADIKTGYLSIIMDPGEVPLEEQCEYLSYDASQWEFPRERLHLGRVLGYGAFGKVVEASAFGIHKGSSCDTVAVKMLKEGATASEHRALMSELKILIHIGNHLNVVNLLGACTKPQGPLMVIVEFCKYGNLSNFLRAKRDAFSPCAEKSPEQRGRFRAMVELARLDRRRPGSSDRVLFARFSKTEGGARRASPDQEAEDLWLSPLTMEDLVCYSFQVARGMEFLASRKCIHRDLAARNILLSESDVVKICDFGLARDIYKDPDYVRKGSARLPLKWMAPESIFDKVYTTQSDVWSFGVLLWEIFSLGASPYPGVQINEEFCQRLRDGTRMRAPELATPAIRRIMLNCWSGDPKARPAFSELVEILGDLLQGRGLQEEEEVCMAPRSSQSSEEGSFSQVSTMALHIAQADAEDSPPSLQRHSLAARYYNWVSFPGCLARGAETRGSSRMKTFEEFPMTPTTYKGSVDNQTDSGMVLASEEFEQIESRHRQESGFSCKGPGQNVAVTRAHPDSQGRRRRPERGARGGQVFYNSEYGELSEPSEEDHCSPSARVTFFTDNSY
Description: Inhibition of VEGFR3 by virtual HTS assay
Experiment [8] addresses Cyclin-dependent kinase 2 (Homo sapiens, UniProt P24941). The experiment is described as follows: Inhibition of CDK2 by virtual HTS assay.
A further experiment has as its target Focal adhesion kinase 1 (Homo sapiens, UniProt Q05397). The experiment is described as follows: Inhibition of FAK by virtual HTS assay.

Proto-oncogene tyrosine-protein kinase Src, sequence (P12931 2-536 limits assumed): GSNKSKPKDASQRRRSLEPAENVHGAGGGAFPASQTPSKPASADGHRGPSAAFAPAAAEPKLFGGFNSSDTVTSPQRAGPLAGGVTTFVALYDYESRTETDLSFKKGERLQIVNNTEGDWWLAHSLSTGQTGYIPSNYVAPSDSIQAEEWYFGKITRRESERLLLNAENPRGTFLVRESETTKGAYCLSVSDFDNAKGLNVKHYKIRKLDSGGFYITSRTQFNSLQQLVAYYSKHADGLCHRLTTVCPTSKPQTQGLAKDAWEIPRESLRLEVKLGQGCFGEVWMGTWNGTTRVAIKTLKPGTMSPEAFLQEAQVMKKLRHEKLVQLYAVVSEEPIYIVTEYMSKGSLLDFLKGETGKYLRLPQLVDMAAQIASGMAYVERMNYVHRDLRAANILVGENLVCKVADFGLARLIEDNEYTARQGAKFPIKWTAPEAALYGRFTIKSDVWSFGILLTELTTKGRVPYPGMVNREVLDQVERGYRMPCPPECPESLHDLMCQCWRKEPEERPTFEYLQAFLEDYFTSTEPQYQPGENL
Epidermal growth factor receptor, sequence (P00533 whole entry): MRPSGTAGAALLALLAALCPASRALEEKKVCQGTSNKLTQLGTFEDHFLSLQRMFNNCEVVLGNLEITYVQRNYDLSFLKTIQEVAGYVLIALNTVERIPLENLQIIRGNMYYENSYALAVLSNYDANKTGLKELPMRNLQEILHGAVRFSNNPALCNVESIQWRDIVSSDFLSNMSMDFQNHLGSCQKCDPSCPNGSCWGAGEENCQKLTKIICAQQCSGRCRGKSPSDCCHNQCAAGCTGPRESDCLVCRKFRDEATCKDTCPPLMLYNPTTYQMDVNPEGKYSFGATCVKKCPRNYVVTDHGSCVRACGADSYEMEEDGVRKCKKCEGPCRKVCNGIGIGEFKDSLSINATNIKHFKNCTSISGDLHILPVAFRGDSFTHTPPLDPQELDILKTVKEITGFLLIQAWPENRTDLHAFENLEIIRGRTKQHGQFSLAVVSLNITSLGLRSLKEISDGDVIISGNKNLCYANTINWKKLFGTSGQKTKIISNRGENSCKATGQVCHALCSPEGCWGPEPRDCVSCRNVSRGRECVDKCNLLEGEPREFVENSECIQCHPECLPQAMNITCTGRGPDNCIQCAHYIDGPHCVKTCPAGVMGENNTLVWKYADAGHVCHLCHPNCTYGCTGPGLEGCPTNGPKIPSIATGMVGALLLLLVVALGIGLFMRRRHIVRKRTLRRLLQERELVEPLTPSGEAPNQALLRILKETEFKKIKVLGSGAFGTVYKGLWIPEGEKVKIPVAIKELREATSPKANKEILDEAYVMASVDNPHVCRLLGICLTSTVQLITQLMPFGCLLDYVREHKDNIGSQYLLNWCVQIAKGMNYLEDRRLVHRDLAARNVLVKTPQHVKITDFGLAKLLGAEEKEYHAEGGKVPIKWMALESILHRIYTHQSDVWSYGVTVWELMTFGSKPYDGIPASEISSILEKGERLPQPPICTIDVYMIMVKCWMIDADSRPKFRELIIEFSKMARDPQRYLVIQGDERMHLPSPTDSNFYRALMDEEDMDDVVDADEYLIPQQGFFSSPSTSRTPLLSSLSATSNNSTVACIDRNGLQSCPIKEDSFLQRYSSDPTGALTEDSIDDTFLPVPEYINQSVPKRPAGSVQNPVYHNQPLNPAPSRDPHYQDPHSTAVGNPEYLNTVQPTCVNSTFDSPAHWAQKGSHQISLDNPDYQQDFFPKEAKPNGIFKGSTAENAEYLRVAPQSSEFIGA

For the compound `Cc1cc2c(Nc3ccc(-c4nc5ccccc5s4)cc3)ncnc2cc1Cl`, the IC50 was greater than 10 µM in experiment [1]; 0.3 µM in experiment [2]; 2.7 µM against Aurora kinase A; greater than 10 µM against Insulin receptor; 3.3 µM in experiment [3]; 1 µM in experiment [4]. Besides, the IC50 on Aurora kinase B, against Angiopoietin-1 receptor and against Ephrin type-B receptor 4 was greater than 10 µM throughout.

`COc1cc2ncnc(Nc3ccc(-c4nc5ccccc5s4)cc3)c2cc1OC`: the IC50 in experiment [1] was 1.5 µM; in experiment [2], greater than 10 µM; against Aurora kinase A, 0.35 µM; against Insulin receptor, greater than 10 µM; in experiment [3], greater than 10 µM; in experiment [4] it was 6.8 µM. The 50% inhibitory concentration (IC50) at Aurora kinase B was 0.135 µM; against Ephrin type-B receptor 4, greater than 10 µM.

With `COc1cc2ncnc(Nc3ccc(-c4nc5ccccc5s4)c(OC)c3)c2cc1OC`, the IC50 in experiment [1] was 0.063 µM; in experiment [2], greater than 10 µM; on Aurora kinase A, greater than 10 µM; against Insulin receptor, greater than 10 µM; in experiment [3], greater than 10 µM; in [4] it was greater than 10 µM. The IC50 at Aurora kinase B and on Ephrin type-B receptor 4 was greater than 10 µM throughout.

For `COc1cc2ncnc(Nc3ccc(N4Cc5ccccc5C4)cc3)c2cc1OC`, the IC50 is 1.6 µM in experiment [1]; 5.3 µM against Aurora kinase A; 7.9 µM at Insulin receptor; 7.5 µM in [3]; 0.92 µM against Aurora kinase B; 6.6 µM in experiment [5].

Turning to `c1cc(Nc2ncnc3nc[nH]c23)cc(-c2nc3ccccc3s2)c1`, the IC50 in experiment [1] is 1.7 µM; in [2], 1.1 µM; against Aurora kinase A, greater than 10 µM; against Insulin receptor, greater than 10 µM; in [3] it was 1.2 µM; in [4] it was 0.87 µM. For the same compound, the IC50 is greater than 10 µM against Aurora kinase B and 0.84 µM against Ephrin type-B receptor 4.

Regarding `c1cc(Nc2ncnc3[nH]ccc23)cc(-c2nc3ccccc3s2)c1`, the IC50 is greater than 10 µM in [2]; greater than 10 µM against Aurora kinase A; greater than 10 µM in experiment [3]; greater than 10 µM in experiment [4]; 6.4 µM at Aurora kinase B; 1.2 µM at Angiopoietin-1 receptor. At Ephrin type-B receptor 4, this compound had an IC50 greater than 10 µM.

In the case of `Cc1cc(Nc2ccnc(Nc3cccc(-c4nc5ccccc5s4)c3)n2)n[nH]1`, the IC50 amounted to 1.9 µM in experiment [1]; 0.19 µM in experiment [2]; 0.16 µM against Aurora kinase A; 1.6 µM at Insulin receptor; 0.1 µM in [3]; 7.5 µM in [4]. Besides, the IC50 against Aurora kinase B is 2 µM; in [6] it was greater than 10 µM; in [7], 2.5 µM; on Angiopoietin-1 receptor it was greater than 10 µM; at Ephrin type-B receptor 4 it was greater than 10 µM.

Take `Fc1cc(-c2nc3ccccc3s2)ccc1Nc1ncnc2cc(Cl)ccc12`: the IC50 in experiment [1] is greater than 10 µM; in experiment [2], 0.7 µM; at Aurora kinase A it was greater than 10 µM; at Insulin receptor, greater than 10 µM; in experiment [3], 1.1 µM; in [4], 0.8 µM. In addition, the half-inhibitory concentration (IC50) is 0.51 µM at Aurora kinase B, 1 µM against Angiopoietin-1 receptor and 1 µM against Ephrin type-B receptor 4.

Turning to `O=C(NC(=S)Nc1ccc(O)c(-c2nc3ccccc3s2)c1)c1ccc([N+](=O)[O-])cc1`, the concentration for half-maximal inhibition (IC50) amounted to 0.28 µM in experiment [1]; 0.19 µM in [2]; 0.31 µM in [3]; 3 µM in experiment [4]; 0.7 µM in experiment [8]; 1 µM in experiment [6]. Moreover, the IC50 is 0.9 µM on Focal adhesion kinase 1, 1 µM in [7], 3 µM at Angiopoietin-1 receptor and 0.61 µM against Ephrin type-B receptor 4.

Regarding `COc1cc2ncnc(Nc3ccc(F)c(Cl)c3)c2cc1OC`, the IC50 against Aurora kinase A turned out to be 6.5 µM; against Insulin receptor, 2.6 µM; in experiment [4], 0.51 µM; against Aurora kinase B, 7.4 µM; in experiment [6] it was 3 µM; in experiment [7], 2.4 µM. Further, the values for the 50% inhibitory concentration (IC50) against Angiopoietin-1 receptor and on Ephrin type-B receptor 4 were 8.3 µM and 0.48 µM, respectively.

As to `COc1cc(Nc2ccnc3cc(Cl)ccc23)ccc1-c1nc2ccccc2s1`, the concentration for half-maximal inhibition (IC50) (in experiment [1]; in experiment [2]; against Aurora kinase A; on Insulin receptor; in experiment [3]; in experiment [4]) was greater than 10 µM throughout. In addition, the IC50 against Aurora kinase B, against Angiopoietin-1 receptor and against Ephrin type-B receptor 4 was greater than 10 µM in each case.

Consider `COc1cc2ncnc(Nc3ccc(-c4nc5ccccc5s4)cc3C)c2cc1OC`, for which the IC50 in experiment [2] was greater than 10 µM; on Aurora kinase A, 4.4 µM; at Insulin receptor, greater than 10 µM; in [3], greater than 10 µM; in experiment [4], 3.4 µM; on Aurora kinase B, 3.7 µM. The half-inhibitory concentration (IC50) is 0.84 µM against Angiopoietin-1 receptor and greater than 10 µM against Ephrin type-B receptor 4.

`COc1cc2nc(Nc3cc(C)n[nH]3)nc(Nc3ccc(-c4nc5ccccc5s4)cc3)c2cc1OC`: the IC50 is greater than 10 µM in experiment [1]; 3 µM in [2]; 6 µM on Aurora kinase A; 2.15 µM at Insulin receptor; 1.65 µM in [3]; greater than 10 µM in [4]. The IC50 at Aurora kinase B is greater than 10 µM; against Angiopoietin-1 receptor, greater than 10 µM; against Ephrin type-B receptor 4 it was 3.3 µM.

Regarding `CNc1nc(Nc2ccc(-c3nc4ccccc4s3)cc2)c2cc(OC)c(OC)cc2n1`, the half-inhibitory concentration (IC50) in experiment [1] was greater than 10 µM; in experiment [2], greater than 10 µM; against Aurora kinase A it was greater than 10 µM; against Insulin receptor, 0.63 µM; in experiment [3] it was greater than 10 µM; in experiment [4] it was greater than 10 µM. In addition, the IC50 against Aurora kinase B, against Angiopoietin-1 receptor and against Ephrin type-B receptor 4 was greater than 10 µM throughout.

On to `Clc1ccc2c(Nc3ccc(-c4nc5ccccc5s4)cc3)ccnc2c1`, for which the half-maximal inhibitory concentration (IC50) amounted to 5.3 µM in experiment [1]; 0.63 µM in [2]; 5.7 µM against Aurora kinase A; 2.7 µM at Insulin receptor; 0.86 µM in [3]; 0.64 µM in experiment [4]. Also, the IC50 is 0.75 µM at Aurora kinase B, 7 µM against Angiopoietin-1 receptor and 1.4 µM against Ephrin type-B receptor 4.

For orientation: IC50 means the concentration that inhibits the measured activity by half.
